Measured values taken from BindingDB's records for aid1799746 (Csar, 2012).

target: T1, UDP-3-O-acyl-N-acetylglucosamine deacetylase (Aquifex aeolicus (strain VF5), UniProt O67648); assay: ITC; conditions: pH 7; 25 °C
T1 sequence (O67648 whole entry): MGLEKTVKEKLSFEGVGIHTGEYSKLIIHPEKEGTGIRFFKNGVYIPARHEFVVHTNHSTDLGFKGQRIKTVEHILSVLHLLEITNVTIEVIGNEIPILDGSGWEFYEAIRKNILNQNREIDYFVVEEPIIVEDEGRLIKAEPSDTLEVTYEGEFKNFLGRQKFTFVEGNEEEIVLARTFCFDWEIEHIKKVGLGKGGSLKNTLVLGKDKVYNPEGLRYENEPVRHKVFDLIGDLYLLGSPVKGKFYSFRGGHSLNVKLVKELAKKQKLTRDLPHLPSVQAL

Kd [µM] | SMILES
0.732 | NC[C@H](NC(=O)c1ccc(-c2ccccc2)cc1)C(=O)NO [CS249]
0.122 | C[C@@H](O)[C@H](NC(=O)c1ccc(-c2ccc(Br)cc2)cc1)C(=O)NO [CS258]
1.21 | C[C@@H](O)[C@H](NC(=O)c1ccc(C#Cc2ccccc2)cc1)C(=O)NO [CS259]
0.224 | C[C@@H](O)[C@H](NC(=O)c1ccc(-c2ccccc2)cc1)C(=O)NO [CS263]

Continued, molecule first:

SMILES | Kd [µM]
NC[C@H](NC(=O)c1ccc(-c2ccc(Br)cc2)cc1)C(=O)NO [CS250] | 0.242
O=C(NO)[C@H]1COC(c2ccc(F)c(C(F)(F)F)c2)=N1 [CS271] | 3.96
O=C(NO)[C@H]1COC(c2cc3cc(F)ccc3[nH]2)=N1 [CS272] | 2.25
O=C(NO)c1csc(-c2ccc(F)c(C(F)(F)F)c2)n1 [CS277] | 3.5
O=C(NO)[C@H]1COC(c2ccc(F)cc2)=N1 [CS279] | 14.8
